Values belong to the compound of their own block, whether it stands above or below them.
Assays:
human TLR8 = target: T1, human TLR8 (Homo sapiens, UniProt Q9NR97); experiment: HEK293-Blue-hTLR-8 cells assay (SEAP reporter, R848 stimulation); assay type: cell-based; settings: HEK293-Blue-hTLR8 cells, R848, 20 hrs
T1 construct: host or cells: HEK293 (HEK-Blue hTLR8)
T1 sequence (Q9NR97 27-1041): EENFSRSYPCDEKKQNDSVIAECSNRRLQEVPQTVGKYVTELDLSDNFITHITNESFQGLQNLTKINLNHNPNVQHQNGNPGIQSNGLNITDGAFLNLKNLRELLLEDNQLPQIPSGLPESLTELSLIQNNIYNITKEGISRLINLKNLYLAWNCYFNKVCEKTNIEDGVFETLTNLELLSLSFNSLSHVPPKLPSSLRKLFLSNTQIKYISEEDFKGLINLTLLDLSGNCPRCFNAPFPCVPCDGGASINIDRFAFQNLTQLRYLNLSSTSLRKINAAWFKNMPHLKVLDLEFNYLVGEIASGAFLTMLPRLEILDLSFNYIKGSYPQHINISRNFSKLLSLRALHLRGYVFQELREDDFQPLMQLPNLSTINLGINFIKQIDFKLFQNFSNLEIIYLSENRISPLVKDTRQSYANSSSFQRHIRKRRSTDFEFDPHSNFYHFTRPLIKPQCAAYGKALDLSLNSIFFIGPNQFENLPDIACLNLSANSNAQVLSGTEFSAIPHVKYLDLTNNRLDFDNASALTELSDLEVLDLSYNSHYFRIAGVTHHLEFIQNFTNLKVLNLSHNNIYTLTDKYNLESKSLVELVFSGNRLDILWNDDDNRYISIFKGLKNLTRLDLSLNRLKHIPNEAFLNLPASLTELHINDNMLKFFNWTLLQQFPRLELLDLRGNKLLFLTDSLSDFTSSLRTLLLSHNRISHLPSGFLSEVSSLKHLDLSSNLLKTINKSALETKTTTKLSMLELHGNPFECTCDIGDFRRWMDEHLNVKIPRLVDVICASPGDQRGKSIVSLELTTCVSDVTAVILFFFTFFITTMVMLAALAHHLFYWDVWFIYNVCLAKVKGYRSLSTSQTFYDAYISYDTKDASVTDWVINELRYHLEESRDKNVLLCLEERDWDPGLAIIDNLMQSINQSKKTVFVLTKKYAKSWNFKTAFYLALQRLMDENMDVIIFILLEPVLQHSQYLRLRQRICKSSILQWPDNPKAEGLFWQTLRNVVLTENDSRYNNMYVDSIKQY
Procedure: The following tests were carried out in order to determine the activity of the compounds of formula (I) in HEK293-Blue-hTLR-7/8/9 cells assay.
HEK293-Blue-hTLR-8 Cells Assay:
A stable HEK293-Blue-hTLR-8 cell line was purchased from InvivoGen (Cat. #: hkb-htlr8, San Diego, Calif., USA). These cells were originally designed for studying the stimulation of human TLR8 by monitoring the activation of NF-κB. A SEAP (secreted embryonic alkaline phosphatase) reporter gene was placed under the control of the IFN-β minimal promoter fused to five NF-κB and AP-1-binding sites. The SEAP was induced by activating NF-κB and AP-1 via stimulating HEK-Blue hTLR8 cells with TLR8 ligands. Therefore the reporter expression was declined by TLR8 antagonist under the stimulation of a ligand, such as R848, for incubation of 20 hrs. The cell culture supernatant SEAP reporter activity was determined using QUANTI-Blue™ kit (Cat #. rep-qbl, Invivogen, San Diego, Calif., USA) at a wavelength of 640 nm, a detection medium that turns purple or blue in the presence of alkaline phosphatase.
HEK293-Blue-hTLR8 cells were incubated at a density of 250,000˜450,000 cells/mL in a volume of 170 μL in a 96-well plate in Dulbecco's Modified Eagle's medium (DMEM) containing 4.5 g/L glucose, 50 U/mL penicillin, […], […], 2 mM L-glutamine, 10% (v/v) heat-inactivated fetal bovine serum with addition of 20 μL test compound in a serial dilution in the presence of final DMSO at 1% and 10 μL of 60 μM R848 in above DMEM, perform incubation under 37° C. in a CO2 incubator for 20 hrs. Then 20 μL of the supernatant from each well was incubated with 180 μL Quanti-blue substrate solution at 37° C. for 2 hrs and the absorbance was read at 620˜655 nm using a spectrophotometer. The signalling pathway that TLR8 activation leads to downstream NF-KB activation has been widely accepted, and therefore similar reporter assay was modified for evaluating TLR8 antagonist.

CYP3A4 = target: T2, CYP3A4 (Homo sapiens, UniProt P08684); experiment: CYP inhibition assay in human liver microsome, CYP3A4; assay type: in vitro ADME; settings: human, liver microsomes, probe midazolam, HLM, midazolam substrate, read-out: CYP inhibition % @10 uM (3A4)
T2 construct: tissue BD-Gentest 452117; host or cells: human liver microsomes
T2 sequence (P08684 whole entry): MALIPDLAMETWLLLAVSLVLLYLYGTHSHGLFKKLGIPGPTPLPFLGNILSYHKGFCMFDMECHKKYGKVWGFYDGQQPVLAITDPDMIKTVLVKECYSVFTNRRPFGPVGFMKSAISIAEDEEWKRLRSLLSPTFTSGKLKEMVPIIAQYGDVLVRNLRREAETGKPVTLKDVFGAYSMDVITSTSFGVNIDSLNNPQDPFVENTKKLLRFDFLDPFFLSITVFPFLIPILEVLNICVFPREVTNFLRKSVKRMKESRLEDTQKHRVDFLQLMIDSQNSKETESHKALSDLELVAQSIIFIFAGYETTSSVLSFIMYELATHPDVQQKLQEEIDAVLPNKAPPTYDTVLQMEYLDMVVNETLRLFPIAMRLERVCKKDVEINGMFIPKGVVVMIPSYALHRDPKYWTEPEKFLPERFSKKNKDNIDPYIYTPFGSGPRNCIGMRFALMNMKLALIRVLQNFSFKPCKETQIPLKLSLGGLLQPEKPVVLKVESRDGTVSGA
Procedure: This is a high throughput screening assay used for assessment of reversible inhibition of CYP2C9, CYP2D6, and CYP3A4 activity of test compounds in human liver microsome (HLM) in early discovery stage.
10 mM DMSO stock solutions of test compounds were diluted in DMSO to generate 2 mM intermediate stock solution. 250 nL of intermediate stock solution were transferred in duplicate into 3 separate 384 well microtitre plates (assay-ready plates). A mixture of HLM and each substrate was made up. 45 μL of HLM substrate mix was then transferred to each well of an assay ready plate and mixed. The negative (solvent) and positive controls (standard inhibitor for each CYP) were included in each assay ready plate. The assay ready plate was warmed to 37° C. in an incubator over 10 minutes. 5 μL pre-warmed NADPH regenerating system was added to each incubation well to start the reaction. Final incubation volume was 50 μL. The assay plate then was placed back in the 37° C. incubator. After 5 minutes incubation (10 minutes for CYP2D6), incubates were quenched by addition of 50 μL quench reagent containing internal standards (400 ng/mL 13C6-4′-OH-Diclofenac, 20 ng/mL D3-Dextrorphan and 20 ng/mL D4-1′OH-Midazolam in acetonitrile). The supernatants were collected for RapidFire/MS/MS analysis.
RapidFire online solid phase extraction/sample injection system (Agilent) coupled with API4000 triple quadrupole mass spectrometer (AB Sciex) were used for sample analysis. The mobile phase composed of acetonitrile and water supplemented with 0.1% formic acid. A C4 solid phase extraction cartridge is used for sample separation. MS detection is achieved in positive ion MRM mode.
Peak areas for substrate, metabolite and internal standard are determined using the
RapidFire integrator software (version 3.6.12009.12296). Peak area ratios (PAR) of metabolite and internal standard (stable-labelled metabolite) are then calculated. The measurement window for each experiment is then defined:
PAR (0% activity)=average PAR for all incubations containing concentrated inhibitor;
Par (100% activity)=average PAR for all incubations containing no inhibitor (DMSO controls);
% Activity (test inhibitor) =[PAR(test inhibitor)-PAR(0% activity)][PAR(100% activity)-PAR(0% activity)];
% Inhibition (test inhibitor)=100-% Activity (test inhibitor).
Percentage inhibition data are then reported, in duplicate, for the 3 CYP enzymes.

IC50 (human TLR8): < 3 nM | inhibition at 5 min, 10 µM (CYP3A4): 2%
Structure (SMILES): C[C@@H]1CN(c2ccc(Cl)c3ncccc23)C[C@H](C(=O)NC2CCCNCC2)O1 (stereo partly drawn) [Example 25, (2R,6R)-N-(azepan-4-yl)-4-(8-chloro-5-quinolyl)-6-methyl-morpholine-2-carboxamide]

IC50 (human TLR8): 21 nM | inhibition at 5 min, 10 µM (CYP3A4): -2%
Structure (SMILES): C[C@@H]1CN(c2ccc(C(F)(F)F)c3ncccc23)C[C@H](C(=O)NC[C@@H]2C[C@@H](F)CN2)O1 [Example 27, (2R,6R)-N-[[(2S,4R)-4-fluoropyrrolidin-2-yl]methyl]-6-methyl-4-[8-(trifluoromethyl)-5-quinolyl]morpholine-2-carboxamide]

IC50 (human TLR8): 86 nM | inhibition at 5 min, 10 µM (CYP3A4): -30%
Structure (SMILES): C[C@@H]1CN(c2ccc(C(F)(F)F)c3ncccc23)C[C@H](C(=O)NC2CNCC(F)(F)C2)O1 (stereo partly drawn) [Example 28, (2R,6R)-N-(5,5-difluoro-3-piperidyl)-6-methyl-4-[8-(trifluoromethyl)-5-quinolyl]morpholine-2-carboxamide]

IC50 (human TLR8): 130 nM | inhibition at 5 min, 10 µM (CYP3A4): 20%
Structure (SMILES): C[C@@H]1CN(c2ccc(C(F)(F)F)c3ncccc23)C[C@H](C(=O)NC[C@@H]2CC(F)(F)CN2)O1 [Example 30]

Second part, the compound before the results:

Structure (SMILES): C[C@@H]1CN(c2ccc([N+](=O)[O-])c3ncccc23)C[C@H](C(=O)NC2CCN(C)CC2)O1 [Example 20, (2R,6R)-6-methyl-N-(1-methyl-4-piperidyl)-4-(8-nitro-5-quinolyl)morpholine-2-carboxamide]
IC50 (human TLR8): < 3 nM | inhibition at 5 min, 10 µM (CYP3A4): 6%

Structure (SMILES): C[C@@H]1CN(c2ccc(Cl)c3ncccc23)C[C@H](C(=O)NCC2CN(C)CCO2)O1 (stereo partly drawn) [Example 26, (2R,6R)-4-(8-chloro-5-quinolyl)-6-methyl-N-[(4-methylmorpholin-2-yl)methyl]morpholine-2-carboxamide]
IC50 (human TLR8): < 3 nM | inhibition at 5 min, 10 µM (CYP3A4): -5%

Structure (SMILES): C[C@@H]1CN(c2ccc(C(F)(F)F)c3ncccc23)C[C@H](C(=O)NC2C3CCC2CNC3)O1 (stereo partly drawn) [Example 31, (2R,6R)-N-(3-azabicyclo[3.2.1]octan-8-yl)-6-methyl-4-[8-(trifluoromethyl)-5-quinolyl]morpholine-2-carboxamide]
IC50 (human TLR8): 9 nM | inhibition at 5 min, 10 µM (CYP3A4): -29%

Structure (SMILES): C[C@@H]1CN(c2ccc(C(F)(F)F)c3ncccc23)C[C@H](C(=O)N2CCC3(CCNCC3)CC2)O1 [Example 32, 3,9-diazaspiro[5.5]undecan-3-yl-[(2R,6R)-6-methyl-4-[8-(trifluoromethyl)-5-quinolyl]morpholin-2-yl]methanone]
IC50 (human TLR8): 20 nM | inhibition at 5 min, 10 µM (CYP3A4): -2%

Structure (SMILES): C[C@@H]1CN(c2ccc(I)c3ncccc23)C[C@H](C(=O)NC2CCN(C)CC2)O1 [Example 38, (2R,6R)-4-(8-iodo-5-quinolyl)-6-methyl-N-(1-methyl-4-piperidyl)morpholine-2-carboxamide]
IC50 (human TLR8): < 3 nM | inhibition at 5 min, 10 µM (CYP3A4): -2%

Structure (SMILES): C[C@@H]1CN(c2ccc(I)c3ncccc23)C[C@H](C(=O)NCC2CN(C)CCO2)O1 (stereo partly drawn) [Example 39, (2R,6R)-4-(8-iodo-5-quinolyl)-6-methyl-N-[(4-methylmorpholin-2-yl)methyl]morpholine-2-carboxamide]
IC50 (human TLR8): < 3 nM | inhibition at 5 min, 10 µM (CYP3A4): 5%

Source: patent US20220363665A1, “QUINOLINE COMPOUNDS FOR THE TREATMENT OF AUTOIMMUNE DISEASE” (Hoffmann-La Roche Inc., priority 2019, published 2022)
